The source of these data is patent publication US9919941B2, “Multiple uses of amine salts for industrial water treatment” (AMSA, Inc., priority 2012, dated 2018).

Each structure is given as a SMILES string. Where two headings read alike, the source gives them in different places.

The experiment has as its system planktonic microbial population of cooling tower water. The experiment can be described thus: time-kill biocidal efficacy, hybrid planktonic-sessile procedure: planktonic population. Type of experiment: cell-based, natural mixed aerobic microbial population. The following applies: for reduction in the total planktonic population / Planktonic, 20-24 h, % of Control / Planktonic, 48-54 h, % of Control / Planktonic, 120 h, % of Control / Planktonic CFU/10 mL, 20-24 h / Planktonic CFU/10 mL, 48-54 h / Planktonic CFU/10 mL, 120 h / Planktonic CFU/10 mL, Total / Planktonic, Total, % of Control / activity at 10 ppm: 10 ppm Compound B, others equimolar; for reduction in the total planktonic population: 110 minutes; for Planktonic, 20-24 h, % of Control / Planktonic, 48-54 h, % of Control / Planktonic, 120 h, % of Control / Planktonic CFU/10 mL, 20-24 h / Planktonic CFU/10 mL, 48-54 h / Planktonic CFU/10 mL, 120 h / Planktonic CFU/10 mL, Total / Planktonic, Total, % of Control / activity at 10 ppm: exposure 110 minutes; for Planktonic CFU/10 mL, 20-24 h: fast growing population; for Planktonic CFU/10 mL, 48-54 h: moderate growth rate population; for Planktonic CFU/10 mL, 120 h: slow growth rate population. How it is done: An experiment was conducted to assess biocidal effectiveness of Compounds A and B and their respective Compounds 13 and 1 anion analogs. Time-kill tests were conducted using a hybrid planktonic-sessile procedure which allowed assessment of biocidal effectiveness against both planktonic and sessile microbial populations. A natural mixed aerobic microbial population in samples collected from an operating cooling tower was used as inoculum for the test. Biocide test concentration for Compound B was 10 ppm. All other products were tested at the equivalent molar concentration. Biocide exposure was 110 minutes. The following procedure was used which generally followed the biocidal testing method of Walter, R. W. and Cooke, L. […] A New Multifunctional Biocide Which Enhances Corrosion Inhibition,” NACE Paper 410, 1997. A water sample was collected from a cooling tower that contained a natural mixed population of microorganisms that grew at different rates when plated on Petrifilm. The populations of cells that grew on Petrifilm in 20-24 hours, 48-54 hours and at 120 hours were treated as separate populations. […] The washers were allowed seven days to develop a biofilm on their surface. Prior to chemical treatment, 10 mL aliquots of the CTW were removed from the beaker and placed into individual exposure test tubes along with a single washer. Test compounds were then added to the individual tubes at equimolar concentrations. All exposure tests including untreated controls were conducted in triplicate (i.e., three washers in separate exposure tubes). After addition of the test compound, the tube was briefly mixed by mild vortexing and again occasionally throughout the exposure time. Determination of residual viable cell population in the bulk water: 1 mL of the water from the exposure tube was plated on petrifilm. A second 1 ml was added to 9 mL tube of Letheen broth and mixed by shaking 10 times. A 1 mL aliquot was plated on petrifilm, a second 1 mL aliquot was added to a 9 ml tube of Butterfields Broth and again shaken 10 times. This serial sequence of plating the dilution and subsequent 1/10 dilution was repeated through 10^-4 to 10^-5 dilution. Determination of colony forming units (CFU) at different incubation times: After plating the various solutions on Petrifilm, the films were incubated at 36° C. for the first 24 hours. At 20 hours the […] read and CFU were recorded. This population was defined as a fast growing population. The […] then incubated for additional time either at 36° C. or room temperature and read at 54 hours. This second population is in addition to the fast growth rate population and was defined as moderate growth rate organisms. Incubation was continued and the […] again after 120 hours. This third population was also treated as separate from the fast and moderate growth rate populations and is referred to as the slow growth rate population. As noted above, each compound was evaluated in triplicate with three separate washers and the results were averaged. Average CFU/mL values were used to calculate total planktonic test population (CFU/10 mL) and total sessile test population (CFU/washer) in each test system.

Turning to `CC(=O)O.CCCCCCCCCCOCCCN` [Compound B, ethanoic acid salt of aminopropyloxydecane], the “reduction in the total planktonic population” value worked out at 63%. Further, for the setting “20-24 h incubation”, the “Planktonic, 20-24 h, % of Control” value is given as 81.7% and the “Planktonic CFU/10 mL, 20-24 h” value is recorded as 810 CFU/10 mL. For the same compound, for the setting “48-54 h incubation”, the “Planktonic, 48-54 h, % of Control” value is on record as 85.0% and the “Planktonic CFU/10 mL, 48-54 h” value is 320,000 CFU/10 mL. Under “120 h incubation”, the “Planktonic, 120 h, % of Control” value turned out to be 34.6% and the “Planktonic CFU/10 mL, 120 h” value was 2,780,000 CFU/10 mL. Moreover, under “total population”, the “Planktonic CFU/10 mL, Total” value is on record as 3,100,000 CFU/10 mL and the “Planktonic, Total, % of Control” value amounted to 36.8%.
For `CCCCCCCCCCSCCN.Cl` [Compound A, 2-(decylthio)ethanamine hydrochloride], the “reduction in the total planktonic population” value is listed as 97%. Also, the activity at 10 ppm (20-24 h incubation, read-out: Planktonic, 20-24 h, % of Control) is 94.9%. Besides, where the note is “48-54 h incubation, read-out: Planktonic, 48-54 h, % of Control”, the activity at 10 ppm was 3.6%. Besides, the activity at 10 ppm (110 min, total population, read-out: Planktonic, Total, % of Control) is 2.9%. Also, the activity at 10 ppm (120 h incubation, read-out: Planktonic, 120 h, % of Control) stood at 2.8%. Further, the “Planktonic CFU/10 mL, 20-24 h” value (20-24 h incubation) is on record as 940 CFU/10 mL. In addition, the “Planktonic CFU/10 mL, 48-54 h” value (48-54 h incubation) was 13,500 CFU/10 mL. In addition, where the note is “120 h incubation”, the “Planktonic CFU/10 mL, 120 h” value is given as 227,000 CFU/10 mL. Also, the “Planktonic CFU/10 mL, Total” value (total population) is recorded as 241,000 CFU/10 mL.
With `CCCCCCCCCCOCCCN.O=C(O)CC(O)(CC(=O)O)C(=O)O` [Compound 1, 2-hydroxypropane-1,2,3-tricarboxylic acid salt of aminopropyloxydecane], for the setting “20-24 h incubation”, the “Planktonic, 20-24 h, % of Control” value is 97.9% and the “Planktonic CFU/10 mL, 20-24 h” value was 970 CFU/10 mL. For the setting “48-54 h incubation”, the “Planktonic, 48-54 h, % of Control” value was determined as 90.3% and the “Planktonic CFU/10 mL, 48-54 h” value is on record as 340,000 CFU/10 mL. In addition, under “120 h incubation”, the “Planktonic, 120 h, % of Control” value was 28.4% and the “Planktonic CFU/10 mL, 120 h” value was 2,280,000 CFU/10 mL. For the setting “planktonic and sessile populations, same experimental conditions and molar concentration”, the “biocidal effectiveness compared with parent salt (in words)” value is listed as “very similar (within experimental error) to those obtained with Compound B”. In addition, for the setting “total population”, the “Planktonic CFU/10 mL, Total” value is 2,620,000 CFU/10 mL and the “Planktonic, Total, % of Control” value turned out to be 31.1%.
